Reference: patent publication US7074789B2, “Kinase inhibitors” (Amgen Inc., priority 1999, dated 2006)
Like-named read-outs stand apart in the source and are kept apart here.

Tests used:
Assay type in all cases: biochemical
Lck = target: T1, Lck (Homo sapiens, UniProt P06239); assay: Kinase inhibition assay (33P transfer), Lck; conditions: read-out: Lck-1
T1 construct: Kinases are expressed as either kinase domains or full length constructs; made in house
From the text: (§1) The inhibitor compounds described herein are screened in the following manner. Kinases suitable for use in the following protocol to determine kinase activity of the compounds described herein include, -but are not limited to: Lck, Lyn, Src, Fyn, Syk, Zap-70, Itk, Tec, Btk, EGFR, ErbB2, Kdr, Flt-1, Flt-3, Tek, c-Met, InsR, and AKT.
(§2) Kinases are expressed as either kinase domains or full length constructs fused to glutathione S-transferase (GST) or polyHistidine tagged fusion proteins in either E. colior Baculovirus-High Five expression systems. […] In some instances, kinases are co-expressed or mixed with purified or partially purified regulatory polypeptides prior to measurement of activity.
(§3) Briefly, The transfer of ^33PO4 from ATP to the synthetic substrates poly(Glu, Tyr) 4:1 or poly(Arg, Ser) 3:1 attached to the bioactive surface of microtiter plates serves as the basis to evaluate enzyme activity. After an incubation period, the amount of phosphate transferred is measured by first washing the plate with 0.5% phosphoric acid, adding liquid scintillant, and then counting in a liquid scintillation detector.

Itk = target: T2, Itk (Homo sapiens, UniProt Q08881); assay: Kinase inhibition assay (33P transfer), Itk; conditions: read-out: Itk-1
T2 construct: Kinases are expressed as either kinase domains or full length constructs; made in house
T2 sequence (Q08881 1-620): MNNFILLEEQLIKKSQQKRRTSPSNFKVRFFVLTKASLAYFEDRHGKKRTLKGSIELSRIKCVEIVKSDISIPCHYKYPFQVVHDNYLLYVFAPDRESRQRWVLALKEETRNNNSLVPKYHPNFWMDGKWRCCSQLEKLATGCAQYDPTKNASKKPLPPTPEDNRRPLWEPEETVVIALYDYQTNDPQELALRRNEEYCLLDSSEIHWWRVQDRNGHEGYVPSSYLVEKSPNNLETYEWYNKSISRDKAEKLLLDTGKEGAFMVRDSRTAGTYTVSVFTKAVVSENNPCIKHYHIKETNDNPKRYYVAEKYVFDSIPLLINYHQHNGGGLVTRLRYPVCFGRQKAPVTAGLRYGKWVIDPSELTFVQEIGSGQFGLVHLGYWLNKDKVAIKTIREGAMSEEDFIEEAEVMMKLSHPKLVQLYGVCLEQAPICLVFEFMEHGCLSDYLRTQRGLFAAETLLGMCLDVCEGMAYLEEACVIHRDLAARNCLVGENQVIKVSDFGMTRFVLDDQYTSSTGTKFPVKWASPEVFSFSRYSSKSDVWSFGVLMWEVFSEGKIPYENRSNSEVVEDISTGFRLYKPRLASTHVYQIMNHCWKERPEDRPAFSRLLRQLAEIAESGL
From the text: as §1
(§4) Kinases are expressed as either kinase domains or full length constructs fused to glutathione S-transferase (GST) or polyHistidine tagged fusion proteins in either E. colior Baculovirus-High Five expression systems. They are purified to near homogeneity by affinity chromatography essentially as previously described (Lehr et al., 1996; Gish et al., 1995). In some instances, kinases are co-expressed or mixed with purified or partially purified regulatory polypeptides prior to measurement of activity.
as §3, with “Kinase activity and inhibition are measured essentially by established protocols (Braunwalder et al., 1996). Briefly,” for “Briefly,”, “detector. The IC50 is determined by the concentration of compound that causes a 50% reduction in the amount of […] incorporated onto the substrate bound to the plate.” for “detector.”

c-Met = target: T3, c-Met (Homo sapiens, UniProt P08581); assay: Kinase inhibition assay (33P transfer), c-Met; conditions: Table 2, kinase inhibition class; read-out: Met-1
T3 construct: Kinases are expressed as either kinase domains or full length constructs; made in house
T3 sequence (P08581 25-1390): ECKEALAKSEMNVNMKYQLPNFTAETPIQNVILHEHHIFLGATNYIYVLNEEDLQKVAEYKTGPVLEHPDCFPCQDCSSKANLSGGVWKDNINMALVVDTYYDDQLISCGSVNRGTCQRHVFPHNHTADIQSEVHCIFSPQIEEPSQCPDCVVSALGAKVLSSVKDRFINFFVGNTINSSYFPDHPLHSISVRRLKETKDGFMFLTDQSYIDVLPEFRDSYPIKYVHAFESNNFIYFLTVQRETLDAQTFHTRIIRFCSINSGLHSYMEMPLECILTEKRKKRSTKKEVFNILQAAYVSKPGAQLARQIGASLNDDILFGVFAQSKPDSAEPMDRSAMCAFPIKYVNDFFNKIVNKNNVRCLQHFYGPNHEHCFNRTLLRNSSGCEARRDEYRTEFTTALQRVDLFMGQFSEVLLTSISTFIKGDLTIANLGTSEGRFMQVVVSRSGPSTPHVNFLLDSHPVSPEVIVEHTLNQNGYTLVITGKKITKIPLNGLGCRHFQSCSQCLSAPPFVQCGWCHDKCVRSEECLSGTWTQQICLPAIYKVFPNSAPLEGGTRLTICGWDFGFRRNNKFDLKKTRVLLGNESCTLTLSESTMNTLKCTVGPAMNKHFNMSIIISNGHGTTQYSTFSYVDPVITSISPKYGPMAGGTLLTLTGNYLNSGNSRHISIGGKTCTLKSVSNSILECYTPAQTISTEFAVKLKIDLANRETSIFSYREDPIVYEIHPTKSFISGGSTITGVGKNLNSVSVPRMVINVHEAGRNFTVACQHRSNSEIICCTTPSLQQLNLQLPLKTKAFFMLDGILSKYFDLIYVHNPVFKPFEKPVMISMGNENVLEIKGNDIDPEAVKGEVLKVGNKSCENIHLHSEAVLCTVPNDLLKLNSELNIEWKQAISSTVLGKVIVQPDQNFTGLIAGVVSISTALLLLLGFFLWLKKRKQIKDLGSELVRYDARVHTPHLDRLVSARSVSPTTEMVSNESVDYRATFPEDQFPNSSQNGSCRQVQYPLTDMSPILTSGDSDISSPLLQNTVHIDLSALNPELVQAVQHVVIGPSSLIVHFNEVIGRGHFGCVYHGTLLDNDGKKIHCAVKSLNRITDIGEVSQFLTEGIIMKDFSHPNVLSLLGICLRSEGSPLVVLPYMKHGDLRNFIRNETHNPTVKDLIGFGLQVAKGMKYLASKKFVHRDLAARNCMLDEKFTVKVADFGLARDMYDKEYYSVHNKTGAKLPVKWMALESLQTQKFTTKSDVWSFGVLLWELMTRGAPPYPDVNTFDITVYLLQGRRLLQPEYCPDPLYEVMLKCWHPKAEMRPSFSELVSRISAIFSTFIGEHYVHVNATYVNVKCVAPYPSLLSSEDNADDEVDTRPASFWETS
From the text: as §1, §4
as §3, with “Kinase activity and inhibition are measured essentially by established protocols (Braunwalder et al., 1996). Briefly,” for “Briefly,”, “detector. The IC50 is determined by the concentration of compound that causes a 50% reduction in the amount of […] incorporated onto the substrate bound to the plate.” for “detector.”

Kdr = target: T4, Kdr (Homo sapiens, UniProt P35968); assay: Kinase inhibition assay (33P transfer), Kdr; conditions: read-out: KDR-1
T4 construct: Kinases are expressed as either kinase domains or full length constructs; made in house
T4 sequence (P35968 20-1356, species assumed): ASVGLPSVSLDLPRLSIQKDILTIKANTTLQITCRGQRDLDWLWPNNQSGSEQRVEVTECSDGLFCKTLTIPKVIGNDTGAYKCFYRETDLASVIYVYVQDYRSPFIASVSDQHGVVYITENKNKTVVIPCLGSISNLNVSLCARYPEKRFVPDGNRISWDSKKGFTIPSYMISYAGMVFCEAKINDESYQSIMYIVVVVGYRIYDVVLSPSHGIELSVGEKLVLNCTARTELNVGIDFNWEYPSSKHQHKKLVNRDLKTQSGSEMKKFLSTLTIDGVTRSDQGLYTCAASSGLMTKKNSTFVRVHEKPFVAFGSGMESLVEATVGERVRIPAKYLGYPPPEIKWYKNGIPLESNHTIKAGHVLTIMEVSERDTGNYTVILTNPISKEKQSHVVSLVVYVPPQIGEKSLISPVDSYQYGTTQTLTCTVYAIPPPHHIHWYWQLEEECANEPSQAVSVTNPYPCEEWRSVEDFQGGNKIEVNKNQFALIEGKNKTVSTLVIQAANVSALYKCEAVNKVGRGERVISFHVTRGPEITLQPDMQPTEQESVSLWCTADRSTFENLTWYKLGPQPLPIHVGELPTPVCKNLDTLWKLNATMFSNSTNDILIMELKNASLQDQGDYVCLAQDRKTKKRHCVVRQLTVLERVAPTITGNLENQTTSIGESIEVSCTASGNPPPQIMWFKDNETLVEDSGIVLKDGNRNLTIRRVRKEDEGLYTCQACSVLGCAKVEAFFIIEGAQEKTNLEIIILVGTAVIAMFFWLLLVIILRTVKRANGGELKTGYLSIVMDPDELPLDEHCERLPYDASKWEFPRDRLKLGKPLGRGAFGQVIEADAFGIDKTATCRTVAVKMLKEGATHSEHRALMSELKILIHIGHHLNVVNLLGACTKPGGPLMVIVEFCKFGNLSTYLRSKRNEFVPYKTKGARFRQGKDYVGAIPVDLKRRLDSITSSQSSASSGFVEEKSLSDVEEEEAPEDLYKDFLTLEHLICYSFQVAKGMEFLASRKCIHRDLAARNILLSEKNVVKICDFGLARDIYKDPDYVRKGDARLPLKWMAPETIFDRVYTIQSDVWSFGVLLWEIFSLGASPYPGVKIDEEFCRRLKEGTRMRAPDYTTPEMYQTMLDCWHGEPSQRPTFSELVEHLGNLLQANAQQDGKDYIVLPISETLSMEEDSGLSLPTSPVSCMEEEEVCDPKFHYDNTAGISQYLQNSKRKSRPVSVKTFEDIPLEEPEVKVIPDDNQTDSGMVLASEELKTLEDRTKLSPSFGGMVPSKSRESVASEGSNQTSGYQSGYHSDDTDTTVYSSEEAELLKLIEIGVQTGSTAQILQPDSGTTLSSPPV
From the text: as §1, §2, §3

EGFR = target: T5, EGFR (Homo sapiens, UniProt P00533); assay: Kinase inhibition assay (33P transfer), EGFR; conditions: Table 2, kinase inhibition class; read-out: EGFR-1
T5 construct: Kinases are expressed as either kinase domains or full length constructs; made in house
T5 sequence (P00533 25-1210, species assumed): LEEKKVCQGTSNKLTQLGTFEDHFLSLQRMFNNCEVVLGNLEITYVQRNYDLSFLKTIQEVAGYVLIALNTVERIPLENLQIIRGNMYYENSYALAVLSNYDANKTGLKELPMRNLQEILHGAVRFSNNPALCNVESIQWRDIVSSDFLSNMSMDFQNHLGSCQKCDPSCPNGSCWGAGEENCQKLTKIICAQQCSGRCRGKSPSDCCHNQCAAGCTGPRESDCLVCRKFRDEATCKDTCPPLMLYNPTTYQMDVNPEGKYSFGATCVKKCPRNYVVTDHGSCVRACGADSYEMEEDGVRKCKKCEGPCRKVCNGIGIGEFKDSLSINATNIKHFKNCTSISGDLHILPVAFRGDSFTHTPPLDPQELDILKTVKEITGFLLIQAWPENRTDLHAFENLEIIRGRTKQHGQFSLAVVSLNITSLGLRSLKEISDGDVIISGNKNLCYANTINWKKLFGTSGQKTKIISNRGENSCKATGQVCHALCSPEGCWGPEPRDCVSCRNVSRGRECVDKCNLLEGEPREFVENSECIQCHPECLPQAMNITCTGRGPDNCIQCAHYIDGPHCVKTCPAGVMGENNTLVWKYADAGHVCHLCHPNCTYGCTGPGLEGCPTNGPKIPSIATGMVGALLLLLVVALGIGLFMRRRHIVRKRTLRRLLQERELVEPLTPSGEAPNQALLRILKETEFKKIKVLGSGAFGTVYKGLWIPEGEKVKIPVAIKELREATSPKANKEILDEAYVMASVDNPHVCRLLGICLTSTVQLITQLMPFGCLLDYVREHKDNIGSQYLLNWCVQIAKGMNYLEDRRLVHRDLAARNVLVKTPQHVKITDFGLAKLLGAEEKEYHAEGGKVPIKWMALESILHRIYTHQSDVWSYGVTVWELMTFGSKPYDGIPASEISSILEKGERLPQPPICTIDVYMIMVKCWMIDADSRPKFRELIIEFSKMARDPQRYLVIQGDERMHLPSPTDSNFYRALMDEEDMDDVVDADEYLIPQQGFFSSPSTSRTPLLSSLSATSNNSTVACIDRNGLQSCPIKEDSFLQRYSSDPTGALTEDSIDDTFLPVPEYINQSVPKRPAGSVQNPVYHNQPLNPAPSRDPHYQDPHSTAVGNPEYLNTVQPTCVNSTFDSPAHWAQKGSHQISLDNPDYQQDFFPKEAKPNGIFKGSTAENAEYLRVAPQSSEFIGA
From the text: as §1, §4
as §3, with “Kinase activity and inhibition are measured essentially by established protocols (Braunwalder et al., 1996). Briefly,” for “Briefly,”, “detector. The IC50 is determined by the concentration of compound that causes a 50% reduction in the amount of […] incorporated onto the substrate bound to the plate.” for “detector.”

AKT = target: T6, AKT (Homo sapiens, UniProt Q9Y243); assay: Kinase inhibition assay (33P transfer), AKT; conditions: Table 2, kinase inhibition class; read-out: AKT3-1
T6 construct: Kinases are expressed as either kinase domains or full length constructs; made in house
T6 sequence (Q9Y243 whole entry, the tested form may be a part): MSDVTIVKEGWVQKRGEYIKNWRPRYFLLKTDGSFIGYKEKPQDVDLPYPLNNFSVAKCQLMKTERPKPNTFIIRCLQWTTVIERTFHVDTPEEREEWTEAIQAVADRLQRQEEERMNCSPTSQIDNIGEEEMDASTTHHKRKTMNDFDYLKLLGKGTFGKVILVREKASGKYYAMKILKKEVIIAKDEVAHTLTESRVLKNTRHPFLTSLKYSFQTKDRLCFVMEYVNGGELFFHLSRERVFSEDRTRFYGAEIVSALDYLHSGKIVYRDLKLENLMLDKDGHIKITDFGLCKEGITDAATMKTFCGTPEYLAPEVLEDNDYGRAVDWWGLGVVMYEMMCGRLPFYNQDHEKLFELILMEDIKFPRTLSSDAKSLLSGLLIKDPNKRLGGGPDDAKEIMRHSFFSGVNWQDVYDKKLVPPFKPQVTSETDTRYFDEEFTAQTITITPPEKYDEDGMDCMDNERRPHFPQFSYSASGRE
From the text: as §1, §2, §3

Zap-70 = target: T7, Zap-70 (Homo sapiens, UniProt P43403); assay: Kinase inhibition assay (33P transfer), Zap-70; conditions: read-out: Zap-1
T7 construct: Kinases are expressed as either kinase domains or full length constructs; made in house
T7 sequence (P43403 1-619): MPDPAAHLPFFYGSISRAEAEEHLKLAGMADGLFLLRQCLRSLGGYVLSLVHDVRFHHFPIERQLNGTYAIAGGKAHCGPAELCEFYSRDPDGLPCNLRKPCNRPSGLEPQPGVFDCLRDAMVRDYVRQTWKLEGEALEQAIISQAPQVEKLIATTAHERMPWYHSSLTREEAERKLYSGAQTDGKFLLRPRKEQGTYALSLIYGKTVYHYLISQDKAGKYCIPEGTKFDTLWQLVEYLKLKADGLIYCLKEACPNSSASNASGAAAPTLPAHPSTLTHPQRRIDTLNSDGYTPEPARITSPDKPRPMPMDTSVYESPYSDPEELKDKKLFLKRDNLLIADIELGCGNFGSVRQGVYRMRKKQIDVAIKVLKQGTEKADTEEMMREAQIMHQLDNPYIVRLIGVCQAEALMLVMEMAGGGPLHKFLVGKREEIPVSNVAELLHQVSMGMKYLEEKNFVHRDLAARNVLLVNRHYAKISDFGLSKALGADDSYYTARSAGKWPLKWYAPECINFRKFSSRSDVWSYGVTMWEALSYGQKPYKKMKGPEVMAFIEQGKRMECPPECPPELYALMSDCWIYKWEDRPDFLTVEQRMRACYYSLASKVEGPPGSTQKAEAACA
From the text: as §1, §2, §3

T1 sequence (P06239 whole entry, species assumed, the tested form may be a part): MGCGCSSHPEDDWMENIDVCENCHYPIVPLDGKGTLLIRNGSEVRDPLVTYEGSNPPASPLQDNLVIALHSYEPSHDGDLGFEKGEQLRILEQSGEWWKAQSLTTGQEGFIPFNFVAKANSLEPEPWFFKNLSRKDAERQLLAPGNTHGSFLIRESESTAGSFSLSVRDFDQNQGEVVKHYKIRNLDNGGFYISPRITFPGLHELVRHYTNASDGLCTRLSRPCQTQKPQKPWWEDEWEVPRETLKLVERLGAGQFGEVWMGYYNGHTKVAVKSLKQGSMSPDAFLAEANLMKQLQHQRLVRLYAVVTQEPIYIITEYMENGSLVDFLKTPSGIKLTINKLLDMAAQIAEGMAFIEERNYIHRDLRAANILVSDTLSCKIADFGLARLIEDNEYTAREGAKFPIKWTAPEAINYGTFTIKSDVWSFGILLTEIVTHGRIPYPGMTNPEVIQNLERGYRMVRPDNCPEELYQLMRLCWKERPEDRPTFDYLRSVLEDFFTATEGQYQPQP

How did the IC50 (Lck) turn out when `O=c1[nH]c2ccccc2n1-c1ncnc(Nc2cccc3cccnc23)n1` [Compound 688] was run?
The IC50 was over 12.7 µM.

And the IC50 (Itk)?
Its IC50 is over 12.7 µM.

And the IC50 (c-Met)?
The IC50 was over 12.7 µM.

And the IC50 (Kdr)?
The IC50 was over 12.7 µM.

What about the IC50 (EGFR) of the same molecule?
Its IC50 is over 12.7 µM.

What about the IC50 (AKT) of the same molecule?
Its IC50 is over 12.7 µM.

And the IC50 (Zap-70)?
The IC50 was 6.75 to 9.85 µM.

How did the IC50 (Lck) turn out when `O=c1[nH]c2ccccc2n1-c1ncnc(Nc2cccc(S(=O)(=O)CCO)c2)n1` [Compound 681] was run?
The IC50 was over 10.9 µM.

What about the IC50 (Itk) of the same molecule?
Its IC50 is over 10.9 µM.

And the IC50 (c-Met)?
The IC50 was over 10.9 µM.

And the IC50 (Kdr)?
Its IC50 is 0.97 to 5.82 µM.

And the IC50 (EGFR)?
Its IC50 is over 10.9 µM.

What about the IC50 (AKT) of the same molecule?
The IC50 was over 10.9 µM.

What about the IC50 (Zap-70) of the same molecule?
Its IC50 is over 10.9 µM.

Which results are given for `O=c1[nH]c2ccccc2n1-c1ncnc(Nc2ccc3ncccc3c2)n1` [Compound 687]?
IC50 (Lck): 1.13 to 6.75 µM; IC50 (Itk): 9.85 to 12.7 µM; IC50 (c-Met): > 12.7 µM; IC50 (Kdr): 1.13 to 6.75 µM; IC50 (EGFR): 9.85 to 12.7 µM; IC50 (AKT): > 12.7 µM; IC50 (Zap-70): > 12.7 µM

Which results are given for `C#Cc1cccc(Nc2ncnc(-n3c(=O)[nH]c4ccccc43)n2)c1` [Compound 460]?
IC50 (Lck; Table 3): 10.7 to 13.7 µM; IC50 (Itk; Table 3): > 13.7 µM; IC50 (c-Met): 7.31 to 10.7 µM; IC50 (Kdr; Table 3): 1.22 to 7.31 µM; IC50 (EGFR): 1.22 to 7.31 µM; IC50 (AKT): > 13.7 µM; IC50 (Zap-70; Table 3): > 13.7 µM

What does the source list for `COc1cc(Nc2ncnc(-c3cccnc3NCc3ccccn3)n2)cc(OC)c1OC` [Compound 1080]?
IC50 (Lck): 5.39 to 7.86 µM; IC50 (Itk): > 10.1 µM; IC50 (c-Met): > 10.1 µM; IC50 (Kdr): < 0.898 µM; IC50 (EGFR): > 10.1 µM; IC50 (AKT): > 10.1 µM; IC50 (Zap-70): > 10.1 µM

Which IC50 (Lck; Table 3) does the source give for `O=c1[nH]c2ccccc2n1-c1ncnc(Nc2cccc(Cl)c2)n1` [Compound 457] here?
The IC50 was 10.3 to 13.3 µM.

What about the IC50 (Itk; Table 3) of the same molecule?
The IC50 was over 13.3 µM.

And the IC50 (c-Met)?
The IC50 was over 13.3 µM.

What about the IC50 (Kdr; Table 3) of the same molecule?
Its IC50 is 1.18 to 7.08 µM.

What about the IC50 (EGFR) of the same molecule?
The IC50 was 7.08 to 10.3 µM.

What about the IC50 (AKT) of the same molecule?
Its IC50 is over 13.3 µM.

And the IC50 (Zap-70; Table 3)?
Its IC50 is over 13.3 µM.

How did the IC50 (Lck; Table 3) turn out when `COc1cc(Nc2ncnc(-c3ccc(N4CCOCC4)nc3)n2)cc(OC)c1OC` [Compound 434] was run?
Its IC50 is over 10.6 µM.

What about the IC50 (Itk; Table 3) of the same molecule?
Its IC50 is over 10.6 µM.

What about the IC50 (c-Met) of the same molecule?
Its IC50 is over 10.6 µM.

And the IC50 (Kdr; Table 3)?
Its IC50 is over 10.6 µM.

And the IC50 (EGFR)?
The IC50 was over 10.6 µM.

What about the IC50 (AKT) of the same molecule?
Its IC50 is over 10.6 µM.

What about the IC50 (Zap-70; Table 3) of the same molecule?
Its IC50 is over 10.6 µM.

Which results are given for `COc1cc(Nc2ncnc(-c3ccc(N(C)C)nc3)n2)cc(OC)c1OC` [Compound 449]?
IC50 (Lck; Table 3): > 11.8 µM; IC50 (Itk; Table 3): > 11.8 µM; IC50 (c-Met): > 11.8 µM; IC50 (Kdr; Table 3): > 11.8 µM; IC50 (EGFR): > 11.8 µM; IC50 (AKT): > 11.8 µM; IC50 (Zap-70; Table 3): > 11.8 µM

`O=c1[nH]c2ccccc2n1-c1ncnc(Nc2cccc3ccccc23)n1` [Compound 683] was tested. Which IC50 (Lck) did it give?
Its IC50 is over 12.7 µM.

And the IC50 (Itk)?
The IC50 was over 12.7 µM.

And the IC50 (c-Met)?
The IC50 was over 12.7 µM.

What about the IC50 (Kdr) of the same molecule?
Its IC50 is over 12.7 µM.

And the IC50 (EGFR)?
Its IC50 is over 12.7 µM.

What about the IC50 (AKT) of the same molecule?
Its IC50 is over 12.7 µM.

What about the IC50 (Zap-70) of the same molecule?
Its IC50 is over 12.7 µM.

Which results are given for `CC(=O)NS(=O)(=O)c1ccc(Nc2ncnc(-n3c(=O)[nH]c4ccccc43)n2)cc1` [Compound 452]?
IC50 (Lck; Table 3): > 10.6 µM; IC50 (Itk; Table 3): > 10.6 µM; IC50 (c-Met): > 10.6 µM; IC50 (Kdr; Table 3): 0.94 to 5.64 µM; IC50 (EGFR): > 10.6 µM; IC50 (AKT): > 10.6 µM; IC50 (Zap-70; Table 3): > 10.6 µM

What does the source list for `O=C(Nc1cccc(Nc2ncnc(-n3c(=O)[nH]c4ccccc43)n2)c1)O[C@@H]1CCOC1` [Compound 455]?
IC50 (Lck; Table 3): > 10.4 µM; IC50 (Itk; Table 3): > 10.4 µM; IC50 (c-Met): > 10.4 µM; IC50 (Kdr; Table 3): 0.923 to 5.54 µM; IC50 (EGFR): 5.54 to 8.08 µM; IC50 (AKT): > 10.4 µM; IC50 (Zap-70; Table 3): > 10.4 µM
